Assay results: paper PMC11791975, “Highly Sensitive In Vivo Imaging of Bacterial Infections with a Hydrophilicity‐Switching, Self‐Immobilizing, Near‐Infrared Fluorogenic β‐Lactamase Probe Enriched within Bacteria” (Advanced Science, 2024)

What was measured:
[1] = target: T1, New Delhi metallo β lactamase-1 (NDM-1 bla) (Klebsiella pneumoniae, UniProt C7C422); test: biochemical; parameters: beta-lactamase inhibition, fluorogenic substrate CDC-1 hydrolysis, initial velocity, 10 min preincubation
T1 construct: gene blaNDM-1
Protocol: (§1) 36 and imaged with an Odyssey SA near-infrared two-color laser imaging system, followed by staining with Coomassie brilliant blue. Assay for IC50 of β-Lactamase Inhibitor The IC50 was determined following the reported protocol with minor modifications. […] The initial velocity (V0) was calculated using the linear portions of the curves. Each experiment was triplicated. The IC50 was obtained by fitting a dose-response curve using Graph Pad Prism 7 software.

[2] = target: T1, New Delhi metallo β lactamase-1 (NDM-1 bla); test: in vitro β-lactamase inhibition assay (IC50, Figure S29; also cites ref […]); assay type: biochemical
[3] = target: TEM-1 β-lactamase (TEM-1 bla) (Escherichia coli, UniProt P62593); test: biochemical; parameters: beta-lactamase inhibition, fluorogenic substrate CDC-1 hydrolysis, initial velocity, 10 min preincubation; conditions: read-out: IC50 (μM) ebselen TEM-1
Protocol: as §1

T1 sequence (C7C422 29-270 limits assumed): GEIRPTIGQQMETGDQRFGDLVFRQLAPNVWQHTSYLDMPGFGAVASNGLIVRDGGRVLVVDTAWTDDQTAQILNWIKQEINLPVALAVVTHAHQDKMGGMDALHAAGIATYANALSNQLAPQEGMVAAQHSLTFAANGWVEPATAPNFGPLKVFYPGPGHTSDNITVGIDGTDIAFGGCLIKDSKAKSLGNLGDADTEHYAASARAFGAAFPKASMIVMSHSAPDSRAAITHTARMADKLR
Chain of TEM-1 β-lactamase (TEM-1 bla) (P62593 24-286 limits assumed): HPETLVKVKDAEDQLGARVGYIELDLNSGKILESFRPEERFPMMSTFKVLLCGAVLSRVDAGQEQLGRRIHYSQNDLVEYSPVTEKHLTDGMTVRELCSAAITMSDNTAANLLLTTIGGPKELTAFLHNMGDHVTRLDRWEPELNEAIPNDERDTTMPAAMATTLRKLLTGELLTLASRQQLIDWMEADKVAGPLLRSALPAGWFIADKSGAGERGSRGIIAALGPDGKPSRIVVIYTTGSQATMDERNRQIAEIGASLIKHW

Row | SMILES | IC50 [1] | IC50 [2] | IC50 [3]
1 | NC(=O)[C@@H]1CC[C@@H]2CN1C(=O)N2OS(=O)(=O)O [avibactam] | > 25 µM |  | 
2 | O=c1c2ccccc2[se]n1-c1ccccc1 [ebselen] |  | 0.508 µM | > 25 µM
